Where two headings read alike, the source gives them in different places.

Assay type in all cases: cell-based
In test [1] the target is T1, hTRPA1 (Homo sapiens, UniProt O75762).
T1 construct: expressed in transfected cells
Briefly: Cytosolic Ca2+ measurement with Fluo-4 AM on a fluorescence plate reader (FlexStation III), ΔRFU dose-response. Conditions: for Hill slope of Ca2+ concentration-response curve: n = 7; for agonist type at hTRPA1 (full / partial): judged from maximum ΔRFU versus AITC.
Protocol: Flp-In 293 cells stably expressing hTRPA1 [22] were a gift from Dr. Takumi Misaka (University of Tokyo, Tokyo, Japan). The hTRPA1-expressing cells were maintained in Dulbecco’s modified Eagle’s medium (DMEM; Invitrogen, Carlsbad, CA, USA) containing 10% fetal bovine serum (FBS; Invitrogen) and 0.2% hygromycin B (Invitrogen). […] All cells were incubated at 37°C in a humidified atmosphere containing 5% CO2. Cultured hTRPA1-expressing cells and Flp-In 293 cells were seeded onto 96-well black-wall plates for 24 h prior to their use in experiments.
hTRPA1-Flp-In 293 stable cells were seeded onto 96-well black-wall CellBIND Surface plates (Corning Inc., Corning, NY, USA) 24h before the assay. The cells were loaded with 5 μM Fluo-4AM (Molecular Probes, Eugene, OR, USA) in assay buffer for 30 min at 27°C, washed with assay buffer, and incubated for 15 min at 27°C. Subsequently, the cytosolic Ca^2+ concentration was measured using a Flex StationIII microplate reader (Molecular Devices). Sample solutions were loaded after a 17s baseline scan and ligand-induced changes in fluorescence intensity (excitation, 486 nm; emission, 516 nm; cutoff, 515 nm) were monitored at 2.1s intervals for 120s. The response of each well is represented as the change in relative fluorescence units (ΔRFU), which was defined as the maximum fluorescence value minus the minimum fluorescence value. All experiments were performed at least three times. Plots of amplitude versus ligand concentration were fitted using Hill’s equations.
Dose-response analyses were carried out with GraphPad Prism (GraphPad Software Inc., San Diego, CA, USA). The data represent the mean ± SEM.

Test [2] has as its target T1, hTRPA1. The test can be described thus: Fura-2 AM ratiometric Ca2+ imaging of hTRPA1-Flp-In 293 stable cells. As to conditions: for activation of hTRPA1 (cytosolic Ca2+ influx): extract 300 μg/mL, AITC 30 μM, 4-allylanisole 1 mM; for activation of hTRPA1 (cytosolic Ca2+ influx) / block of Ca2+ influxes induced by the five active compounds in hTRPA1 cells: p-anisaldehyde 1 mM, L-carveol 300 μM, trans-p-methoxycinnamaldehyde 100 μM, methyl eugenol 300 μM; for block of Ca2+ influxes induced by the five active compounds in hTRPA1 cells / inhibition of Ca2+ responses induced by AITC and the A.rugosa extract in hTRPA1 cells: antagonist: RR 30 μM, HC-030031 100 μM; for block of Ca2+ influxes induced by the five active compounds in hTRPA1 cells: agonists 4-allylanisole 1 mM; for inhibition of Ca2+ responses induced by AITC and the A.rugosa extract in hTRPA1 cells: hTRPA1-Flp-In 293 stable cells.
Protocol: Flp-In 293 cells stably expressing hTRPA1 [22] were a gift from Dr. Takumi Misaka (University of Tokyo, Tokyo, Japan). The hTRPA1-expressing cells were maintained in Dulbecco’s modified Eagle’s medium (DMEM; Invitrogen, Carlsbad, CA, USA) containing 10% fetal bovine serum (FBS; Invitrogen) and 0.2% hygromycin B (Invitrogen). Flp-In 293 cells (Invitrogen: R750-07) were maintained in DMEM containing 10% FBS. All cells were incubated at 37°C in a humidified atmosphere containing 5% CO2. Cultured hTRPA1-expressing cells and Flp-In 293 cells were seeded onto 96-well black-wall plates for 24 h prior to their use in experiments.
(§1) Non-hTRPA1-expressing Flp-In 293 cells, HEK293T cells, hTRPA1-Flp-In 293 stable cells, and HEK293T cells transiently expressing hTRPV1 were seeded onto 96-well black-wall imaging plates (BD Falcon Labware, Franklin Lakes, NJ, USA) for 24 h prior to their use in experiments. After 24 h, the cells were washed with assay buffer (130 mM NaCl, 10 mM glucose, 5 mM KCl, 2 mM CaCl2, 1.2 mM MgCl2, and 10 mM HEPES [pH 7.4]) and loaded with the Ca^2+ indicator dye Fura-2AM (5 μM; Invitrogen) in assay buffer for 30 min at 27°C. The cells were rinsed with assay buffer, incubated in 100 μl of assay buffer for >10 min, and then treated with ligand by adding 100 μl of the ligand solution. […] The fluorescence intensity of Fura-2 AM excited at 340 and 380 nm was measured at 510 nm using a computer-controlled filter changer (Lambda DG4; Sutter Instrument Co., San Rafael, CA, USA), an Andor Luca CCD camera (Andor Technology, Belfast, Northern Ireland), and an inverted fluorescence microscope (IX-71; Olympus, Tokyo, Japan). Images were recorded at 3 s intervals and were analyzed using MetaFluor software (Molecular Devices, Sunnyvale, CA, USA).

In another test the target is T2, hTRPV1 (Homo sapiens, UniProt Q8NER1).
T2 construct: host or cells: HEK293T cells, transient transfection with pEAK10-hTRPV1
Briefly: Fura-2 AM ratiometric Ca2+ imaging of HEK293T cells transiently expressing hTRPV1 (responding cells %). As to conditions: for activation of hTRPV1 (cytosolic Ca2+ influx, responding cells): extract 300 μg/mL, capsaicin 0.1 μM, ten compounds at 0.1-1 mM; for inhibition of Ca2+ responses induced by the A.rugosa extract in hTRPV1 cells: antagonist: RR 30 μM, CPZ 5 μM, HEK293T cells transiently expressing hTRPV1.

The target in test [3] is T1, hTRPA1. The test can be described thus: Whole-cell patch clamp recording of hTRPA1 currents. Conditions: for induction of hTRPA1 inward currents: holding -70 mV, 30 s application, hTRPA1-Flp-In 293 stable cells and HEK293T cells transiently expressing hTRPA1, AITC 30 μM, 4-allylanisole 3 mM, p-anisaldehyde 6 mM, L-carveol 1.8 mM, methyl eugenol 900 μM, trans-p-methoxycinnamaldehyde 1 mM. On the procedure:
For the transient expression of hTRPA1, HEK293T cells (ATCC: CRL-11268) cultured at 37°C in DMEM supplemented with 10% FBS and 1% penicillin/streptomycin (Invitrogen) were transfected using Lipofectamine 2000 (Invitrogen) and 0.1μg of cDNA encoding tetrameric red fluorescence protein (DsRed) was co-transfected as a marker for successfully transfected cells. The hTRPA1expressing plasmid was generously given to us from Kyeongjin Kang (Sungkyunkwan University School of Medicine, Suwon, Korea). The next day, cells were plated onto poly-L-lysine (0.1 mg/ml, Sigma-Aldrich) coated chips, and the fluorescent cells were studied within 2 days after transfection.
Cells were voltage clamped in the whole-cell recording configuration at room temperature (22–25°C). The resistance of electrodes pulled from glass micropipette capillaries (Sutter Instrument Co., Novato, CA, USA) was 2–2.5 MΩ with >60% compensation of series resistance errors. Fast and slow capacitances were compensated before application of the test pulse. Membrane currents were recorded using a HEKA EPC-10 amplifier with pulse software (HEKA Elektronik, Lambrecht, Germany). The pipette solution used for recording hTRPA1 currents contained 140 mM KCl, 5 mM MgCl2, 10 mM HEPES, 0.1 mM 1,2-bis(2-aminophenoxy)ethane-N,N,N',N'-tetraacetic acid (BAPTA), 3 mM Na2ATP, and 0.1 mM Na3GTP (adjusted to pH 7.4 with KOH). The external Ringer’s solution used for recording hTRPA1 currents contained 160 mM NaCl, 5 mM KCl, 1 mM MgCl2, 2 mM EGTA, 10 mM glucose, and 10 mM HEPES (adjusted to pH 7.4with NaOH). hTRPA1 currents were recorded by holding the cell at -70 mV. The following reagents were obtained: BAPTA, Na2ATP, Na3GTP, and EGTA (Sigma-Alrich), HEPES (Calbiochem, San Diego, CA, USA), and other chemicals (Merck, Township, NJ, USA).

Setting [4] is: hTRPA1-Flp-In 293 stable cells, Fluo-4 AM.
The mark [5] stands for this setting: hTRPA1-Flp-In 293 stable cells, Fluo-4 AM, ΔRFU, Hill fit, seven independent experiments, mean ± SEM, read-out: EC50 of Ca2+ response.

T2 sequence (Q8NER1 whole entry): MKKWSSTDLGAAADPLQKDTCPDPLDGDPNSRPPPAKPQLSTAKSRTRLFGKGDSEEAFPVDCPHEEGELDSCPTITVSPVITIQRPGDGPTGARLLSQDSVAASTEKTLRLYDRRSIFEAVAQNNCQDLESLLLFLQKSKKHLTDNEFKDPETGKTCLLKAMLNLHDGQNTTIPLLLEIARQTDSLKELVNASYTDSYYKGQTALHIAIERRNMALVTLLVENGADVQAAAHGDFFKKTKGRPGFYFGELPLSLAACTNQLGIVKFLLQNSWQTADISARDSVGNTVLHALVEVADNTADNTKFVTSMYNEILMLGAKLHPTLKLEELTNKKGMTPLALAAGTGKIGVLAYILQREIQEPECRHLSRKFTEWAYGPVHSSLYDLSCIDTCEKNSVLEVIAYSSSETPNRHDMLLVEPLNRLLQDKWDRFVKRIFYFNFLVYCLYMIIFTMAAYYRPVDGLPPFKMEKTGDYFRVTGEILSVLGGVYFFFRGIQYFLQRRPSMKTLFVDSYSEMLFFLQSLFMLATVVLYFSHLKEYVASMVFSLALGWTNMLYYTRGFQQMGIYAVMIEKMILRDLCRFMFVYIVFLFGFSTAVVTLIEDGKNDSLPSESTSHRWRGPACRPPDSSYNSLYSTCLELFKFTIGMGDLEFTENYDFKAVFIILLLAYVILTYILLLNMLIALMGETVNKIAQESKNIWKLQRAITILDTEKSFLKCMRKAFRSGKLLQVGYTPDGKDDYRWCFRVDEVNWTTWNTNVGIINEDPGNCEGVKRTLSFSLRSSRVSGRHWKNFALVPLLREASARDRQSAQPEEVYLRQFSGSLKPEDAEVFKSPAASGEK
T1 sequence (O75762 whole entry): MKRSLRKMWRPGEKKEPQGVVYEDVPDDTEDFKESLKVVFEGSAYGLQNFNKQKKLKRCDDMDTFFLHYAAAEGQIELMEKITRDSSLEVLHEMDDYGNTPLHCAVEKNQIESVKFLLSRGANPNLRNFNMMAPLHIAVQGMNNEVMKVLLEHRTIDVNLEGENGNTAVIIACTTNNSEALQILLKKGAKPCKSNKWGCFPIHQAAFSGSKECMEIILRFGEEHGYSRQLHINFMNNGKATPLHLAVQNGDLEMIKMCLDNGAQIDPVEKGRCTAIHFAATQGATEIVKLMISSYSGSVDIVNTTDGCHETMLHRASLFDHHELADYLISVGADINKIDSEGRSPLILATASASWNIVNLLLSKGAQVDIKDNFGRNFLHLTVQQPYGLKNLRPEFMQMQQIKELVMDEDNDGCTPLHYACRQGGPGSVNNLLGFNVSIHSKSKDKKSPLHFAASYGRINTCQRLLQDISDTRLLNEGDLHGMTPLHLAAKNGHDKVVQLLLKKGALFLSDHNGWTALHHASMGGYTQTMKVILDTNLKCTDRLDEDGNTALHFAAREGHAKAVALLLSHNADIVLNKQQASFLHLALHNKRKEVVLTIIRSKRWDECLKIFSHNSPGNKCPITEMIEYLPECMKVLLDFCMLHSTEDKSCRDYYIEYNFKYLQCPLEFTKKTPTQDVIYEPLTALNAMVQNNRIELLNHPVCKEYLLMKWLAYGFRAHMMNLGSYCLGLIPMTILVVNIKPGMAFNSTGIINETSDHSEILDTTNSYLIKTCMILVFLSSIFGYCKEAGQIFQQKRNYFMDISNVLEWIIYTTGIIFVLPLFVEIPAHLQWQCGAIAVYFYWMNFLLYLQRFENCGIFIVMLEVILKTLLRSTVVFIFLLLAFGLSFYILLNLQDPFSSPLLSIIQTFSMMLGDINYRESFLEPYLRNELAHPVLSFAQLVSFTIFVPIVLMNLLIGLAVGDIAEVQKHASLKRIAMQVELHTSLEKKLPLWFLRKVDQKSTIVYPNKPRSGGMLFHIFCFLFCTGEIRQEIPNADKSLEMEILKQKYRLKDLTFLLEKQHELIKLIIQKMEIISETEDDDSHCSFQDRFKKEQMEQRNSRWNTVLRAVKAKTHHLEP
Protocol for hTRPV1: HEK293T cells cultured at 37°C in DMEM supplemented with 10% FBS and 1% penicillin/streptomycin (Invitrogen) were seeded onto 100 mm dishes and transfected with the hTRPV1 expression plasmid using Lipofectamine 2000. After 6 h, the transfected cells were seeded onto 96-well black-wall plates for 24 h prior to their use in experiments.
as §1

As to `COc1ccc(/C=C/C=O)cc1` [trans-p-methoxycinnamaldehyde], on hTRPA1 [1] (setting [4]), the “Hill slope of Ca2+ concentration-response curve” value (from here on “Hill slope”) amounted to 2.2±0.7. Further, the EC50 on hTRPA1 [1] (setting [5]) amounted to 29.8 ± 14.9 µM. Besides, the “agonist type at hTRPA1 (full / partial)” value at hTRPA1 [1] was “almost full agonists”. For the same compound, on hTRPA1 [2], the “activation of hTRPA1 (cytosolic Ca2+ influx)” value (shortened to “activation of hTRPA1”) is listed as “activated hTRPA1”. Besides, the “activation of hTRPV1 (cytosolic Ca2+ influx, responding cells)” value (shortened to “activation of hTRPV1”) on hTRPV1 is recorded as “did not activate hTRPV1”. In addition, the “induction of hTRPA1 inward currents” value at hTRPA1 [3] is “induced inward currents”.

Consider `COc1cc(CNC(=O)CCCC/C=C/C(C)C)ccc1O` [capsaicin, reference compound], for which, on hTRPV1, the “activation of hTRPV1” value was “significantly stimulated”.

Regarding `C=CCN=C=S` [AITC, allyl isothiocyanate, reference compound], the “Hill slope” value at hTRPA1 [1] (setting [4]) was 1.6±0.5. Besides, on hTRPA1 [2], the “activation of hTRPA1” value is listed as “successfully activated”. Further, the “induction of hTRPA1 inward currents” value on hTRPA1 [3] is on record as “induced inward currents”.

In the case of `N.N.N.N.N.N.N.N.N.N.N.N.N.N.[Cl-].[Cl-].[Cl-].[Cl-].[Cl-].[Cl-].[O-2].[O-2].[Ru+3].[Ru+3].[Ru+4]` [RR, ruthenium red, reference compound], on hTRPA1 [2], the “block of Ca2+ influxes induced by the five active compounds in hTRPA1 cells” value was “mostly blocked”; the “inhibition of Ca2+ responses induced by AITC and the A.rugosa extract in hTRPA1 cells” value is “inhibited”. Besides, the “inhibition of Ca2+ responses induced by the A.rugosa extract in hTRPV1 cells” value against hTRPV1 is given as “inhibited”. Also, at hTRPA1 [3] (30 μM RR, pre-incubation 30 s before second application of compounds), the “block of hTRPA1 currents evoked by AITC and five compounds” value is recorded as “completely blocked”.

With `Oc1cc2c(cc1O)CN(C(=S)NCCc1ccc(Cl)cc1)CCC2` [CPZ, capsazepine, reference compound], the “inhibition of Ca2+ responses induced by the A.rugosa extract in hTRPV1 cells” value on hTRPV1 is reported as “inhibited”.

In the case of `C=CCc1ccc(OC)cc1` [4-allylanisole], at hTRPA1 [1] (setting [4]), the “efficacy (maximum ΔRFU) relative to that of AITC” value is 59.9% and the “Hill slope” value was found to be 1.7±0.3. For the same compound, the EC50 at hTRPA1 [1] (setting [5]) stood at 1540 ± 316 µM. The “agonist type at hTRPA1 (full / partial)” value at hTRPA1 [1] is “partial agonists”. At hTRPA1 [2], the “activation of hTRPA1” value is “activated hTRPA1”. Moreover, the “activation of hTRPV1” value on hTRPV1 is on record as “did not activate hTRPV1”. Further, the “induction of hTRPA1 inward currents” value at hTRPA1 [3] is “induced inward currents”.

As for `COc1ccc(C=O)cc1` [p-anisaldehyde], on hTRPA1 [1] (setting [4]), the “efficacy (maximum ΔRFU) relative to that of AITC” value worked out at 64.2% and the “Hill slope” value is recorded as 2.0±0.5. For the same compound, the EC50 on hTRPA1 [1] (setting [5]) was determined as 546 ± 73 µM. Also, the “agonist type at hTRPA1 (full / partial)” value at hTRPA1 [1] is given as “partial agonists”. On hTRPA1 [2], the “activation of hTRPA1” value is “activated hTRPA1”. In addition, the “activation of hTRPV1” value at hTRPV1 is reported as “did not activate hTRPV1”. On hTRPA1 [3], the “induction of hTRPA1 inward currents” value is recorded as “induced inward currents”.

In the case of `CC(C)c1ccc(NC(=O)Cn2cnc3c2c(=O)n(C)c(=O)n3C)cc1` [HC-030031, reference compound], on hTRPA1 [2], the “block of Ca2+ influxes induced by the five active compounds in hTRPA1 cells” value is listed as “mostly blocked”; the “inhibition of Ca2+ responses induced by AITC and the A.rugosa extract in hTRPA1 cells” value is “inhibited”.

Turning to `C=CCc1ccc(OC)c(OC)c1` [methyl eugenol], the “Hill slope” value on hTRPA1 [1] (setting [4]) came out at 1.4±0.3. Moreover, the EC50 on hTRPA1 [1] (setting [5]) amounted to 160 ± 21.9 µM. The “agonist type at hTRPA1 (full / partial)” value on hTRPA1 [1] is listed as “almost full agonists”. Also, the “activation of hTRPA1” value on hTRPA1 [2] is recorded as “activated hTRPA1”. For the same compound, on hTRPV1, the “activation of hTRPV1” value was “did not activate hTRPV1”. The “induction of hTRPA1 inward currents” value on hTRPA1 [3] is on record as “induced inward currents”.

On to `C=C(C)[C@@H]1CC=C(C)C(O)C1` (stereo partly drawn) [L-carveol], for which, at hTRPA1 [1], the concentration giving a half-maximal response (EC50) amounted to 189 ± 26.8 µM and the “agonist type at hTRPA1 (full / partial)” value is “almost full agonists”. Moreover, the “Hill slope” value on hTRPA1 [1] (setting [4]) is recorded as 2.9±0.5. Moreover, the “activation of hTRPA1” value at hTRPA1 [2] is “activated hTRPA1”. The “activation of hTRPV1” value at hTRPV1 was “did not activate hTRPV1”. Further, the “induction of hTRPA1 inward currents” value at hTRPA1 [3] is recorded as “induced inward currents”.
